{"source": "patent US8912120B2", "about": "“Herbicidal compositions comprising 4-amino-3-chloro-5-fluoro-6-(4-chloro-2-fluoro-3-methoxyphenyl) pyridine-2-carboxylic acid or a derivative thereof and synthetic auxin herbicides” (Dow AgroSciences, LLC., priority 2012, dated 2014)", "key": {"VIOTR": {"test_system": "VIOTR", "assay": "Example IV: postemergence foliar-applied herbicidal mixtures, cereal crops, VIOTR", "assay_type": "in vivo, Viola tricolor (wild pansy)", "settings": "8.75 gai/ha", "outline": "(§1)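 Greenhouse plants were grown 7–36 days in potting mix (pH 6.0–6.8) under ~14 h photoperiod at about 18 °C day/17 °C night. Postemergence foliar sprays (12 mL) contained the second cereal herbicide with experimental compound as two- and three-way mixtures.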"}, "STEME": {"test_system": "STEME", "assay": "Example IV: postemergence foliar-applied herbicidal mixtures, cereal crops, STEME", "assay_type": "in vivo, Stellaria media (common chickweed)", "settings": "alone, 8.75 gai/ha, 20-22 days", "method": "Seeds of the desired test plant species were planted in Sun Gro MetroMix 306 planting mixture, which typically has a pH of 6.0 to 6.8 and an organic matter content of about 30 percent, in plastic pots with a surface area of 103.2 square centimeters (cm^2). […] The plants were grown for 7-36 days in a greenhouse with an approximate 14 hour photoperiod which was maintained at about 18° C. during the day and 17° C. during the night.\nSpray solutions of the second cereal herbicide and experimental compound mixtures were prepared by adding the stock solutions to the appropriate amount of dilution solution to form 12 mL spray solution with active ingredients in two- and three-way combinations."}, "AMARE": {"test_system": "AMARE", "assay": "Example IV: postemergence foliar-applied herbicidal mixtures, weed control in cereal crops in the greenhouse, AMARE", "assay_type": "in vivo, Amaranthus retroflexus (redroot pigweed)", "settings": "alone, 8.75 gai/ha, 20-22 days", "outline": "as §1"}}, "data": [{"smiles": "COc1c(Cl)ccc(-c2nc(C(=O)OCc3ccccc3)c(Cl)c(N)c2F)c1F", "note": "[Compound A Benzyl Ester, benzyl ester of 4-amino-3-chloro-5-fluoro-6-(4-chloro-2-fluoro-3-methoxy-phenyl)pyridine-2-carboxylic acid]", "values": [{"measurement": "Weed Control Ob", "setting": "VIOTR; after 20-22 days", "result": 30, "unit": "%"}, {"measurement": "VIOTR Ob (observed value)", "setting": "VIOTR; alone, foliar, 20-22 days", "result": 30, "unit": "%"}, {"measurement": "STEME Ob (observed value)", "setting": "STEME", "result": 70, "unit": "%"}, {"measurement": "AMARE Ob (observed value)", "setting": "AMARE", "result": 60, "unit": "%"}]}]}
